{"source": "patent US11707519B2", "about": "“Phosphorylated heptose compounds: process for their preparation and use” (priority 2017, dated 2023)", "key": {"[1]": {"system": "NF-κB-driven luciferase reporter in HEK 293T cells", "experiment": "NF-κB-driven luciferase reporter assay in HEK 293T cells", "format": "cell-based", "conditions": "20 μg/mL synthetic compound, 20 minutes in permeabilization buffer (5 μg/mL digitonin), then 3.5 hours in complete medium; FIG. 35", "method": "(§1) FIG. 35: Effects of compounds/products according to the invention on HEK 293T cells encoding an NF-κB-driven luciferase reporter gene. HEK 293T cells were transfected with a plasmid encoding an NF-κB-driven luciferase reporter. After 24 hours, cells were stimulated for 20 minutes in permeabilization buffer (5 μg/mL digitonin) in the presence of culture supernatant from N. meningitidis mutants with (gmhB) or without (hldA) HBP or 20 μg/mL of synthetic compounds according to the invention. Treatment was removed; cells were washed and incubated for 3.5 hours in complete medium. A luciferase assay was then performed. The results are mean of technical triplicates.\nas §1, with “HEK” for “FIG. 35: Effects of compounds/products according to the invention on HEK 293T cells encoding an NF-κB-driven luciferase reporter gene. HEK”, “compound” for “compounds”, “results obtained are illustrated in FIG. 35. They” for “results”"}, "HCT 116 cells": {"system": "HCT 116 cells", "experiment": "IL-8 ELISA after stimulation of human colonic epithelial cells (HCT 116, WT or TIFA KO)", "format": "cell-based", "conditions": "10 μg/mL synthetic compound, 20 minutes with digitonin, then 6 hours, FIG. 36", "method": "(§2) FIG. 36: Stimulation of human colonic epithelial cells by compounds/products according to the invention. Human colonic epithelial cells (HCT 116) that were either wild type (WT) or deficient in TIFA protein expression (knockout, KO) were stimulated for 20 minutes in permeabilization buffer (5 μg/mL digitonin) in the presence of culture supernatant from N. meningitidis mutants with (gmhB) or without (hldA) HBP or 10 μg/mL of synthetic compound according to the invention. Treatment was removed, cells were washed, and cells were incubated for 6 hours in complete media and IL-8 levels in culture supernatants were measured by ELISA. The results are mean of technical duplicates.\nas §2, with “Human” for “FIG. 36: Stimulation of human colonic epithelial cells by compounds/products according to the invention. Human”, “results obtained are illustrated in FIG. 36. They” for “results”"}, "THP-1 cells": {"system": "THP-1 cells", "experiment": "IL-8 ELISA after stimulation of human macrophage cells (THP-1)", "format": "cell-based", "conditions": "THP-1, 30 μM or 150 μM synthetic compound, 20 minutes with digitonin, then 6 hours; FIG. 37", "method": "(§3) FIG. 37: Stimulation of human macrophages by compounds/products according to the invention. Human macrophage cells (THP-1) were stimulated for 20 minutes in permeabilization buffer (5 μg/mL digitonin) in the presence of water, 39.8 μM of the Nod1 agonist C12-iE-DAP (which stimulates in a TIFA-independent manner), or either 30 μM or 150 μM of synthetic compound according to the invention. Treatment was removed, cells were washed, and cells were incubated for 6 hours in complete media before the IL-8 levels in culture supernatants were measured by ELISA. The results are the mean and standard error of the mean of three technical replicates. Nod1 agonist: C12-iE-DAP (20 μg/mL, 39.8 μM); HBP: D-glycero-1-D-manno-heptose-1β,7-bi-phosphate.\nas §3, with “Stimulation” for “FIG. 37: Stimulation”, “ELISA (FIG. 37).” for “ELISA.”, “Nod1 agonist: C12-iE-DAP (20 μg/mL, 39.8 μM); HBP: D-glycero-1-D-manno-heptose-1β,7-bi-phosphate.” left out"}, "[2]": {"system": "TbpB originating from group B N. meningitidis", "experiment": "Adjuvant test: mice immunized with TbpB, serum IgG titers to TbpB by ELISA", "format": "in vivo, C57BL/6NCrl mice", "conditions": "25 μg TbpB with adjuvant intramuscularly, doses D0, D21, D28; serum D14, D28, D35; compared with TbpB alone and TbpB+alum; FIG. 38A", "method": "(§4) FIG. 38: 6-week-old male C57BL/6NCrl mice were immunized with TbpB originating from group B N. meningitidis, purified from recombinant E. coli. All groups were immunized with 25 μg of TbpB with or without adjuvant, in a total volume of 30 μL intramuscularly: TbpB alone, TbpB+alum, and TbpB+HBP (200 μg). Three doses were given: D0, D21, and D28. Serum was collected at D0 prior to immunization, D14, D28, and D35 and then examined by ELISA for IgG titers to TbpB (FIG. 38A). Mice were challenged on D36 with 5×10^7 of N. meningitidis strain expressing the homologous TbpB. Mice were injected with human transferrin (200 μL of 8 mg/mL) as this is critical for the development of sepsis in this model. Mice were monitored at the 1 h, 12 h, 18 h, 24 h, and 36 h time points. At 1 h, blood was collected to enumerate CFUs (FIG. 38B). Clinical scores were collected at 12 h post challenge (FIG. 38C).\n(§5) HBP can act as an adjuvant. 6-week-old male C57BL/6NCrl mice were immunized with TbpB originating from group B N. meningitidis, purified from recombinant E. coli. All groups were immunized with 25 μg of TbpB with or without adjuvant, in a total volume of 30 μL intramuscularly TbpB, TbpB+alum, and TbpB+HBP (equimolar to 200 μg). Three doses were given: D0, D21, D28. […] Mice were monitored at the 1 h, 12 h, 18 h, 24 h, and 36 h time points. […]"}, "N. meningitidis": {"system": "N. meningitidis", "experiment": "Challenge of immunized mice with N. meningitidis strain expressing matching TbpB (sepsis model)", "format": "in vivo, C57BL/6NCrl mice", "conditions": "TbpB with adjuvant as opposed to TbpB alone", "method": "as §4, §5"}}, "data": [{"smiles": "O=P(O)(O)OC[C@@H](O)[C@H]1O[C@@H](OP(=O)(O)O)[C@@H](O)[C@@H](O)[C@@H]1O", "note": "[HBP, D-glycero-D-manno-heptopyranose 1β,7-bisphosphate]", "values": [{"measurement": "NF-κB stimulation (luciferase assay)", "setting": "[1]", "value": "can immunomodulate via NF-κB stimulation in vitro"}, {"measurement": "cytokine expression (IL-8 levels in culture supernatants)", "setting": "HCT 116 cells", "value": "can drive cytokine expression in vitro"}, {"measurement": "cytokine expression (IL-8 levels in culture supernatants)", "setting": "THP-1 cells", "value": "can drive cytokine expression in vitro"}, {"measurement": "IgG titers to TbpB", "setting": "[2]", "value": "significantly higher than administration of TbpB alone and greater than observed with alum as the adjuvant"}, {"measurement": "clinical scores", "setting": "N. meningitidis; challenge D36, 12 h post challenge, FIG. 38C", "value": "lower"}, {"measurement": "bacterial burden (CFU in blood)", "setting": "N. meningitidis; challenge D36 with 5×10^7 N. meningitidis, blood at 1 h, FIG. 38B", "value": "reduced"}]}]}
